The values below come from US20250011715A1, “METHOD FOR PRODUCING INNER EAR STRIA VASCULARIS MARGINAL CELLS, CHEMICAL AGENT ASSESSMENT METHOD, AND CELL CULTURE FOR ASSESSING CHEMICAL AGENT” (THE KITASATO INSTITUTE, priority 2021, published 2025).

Test [1] deals with inner ear stria vascularis marginal cells (cell mass after suspension culture) from human iPS cells. The note with it: HBSS containing 2 mM EDTA, on ice 15 minutes, 4 kDa FITC-Dextran 2 mg/mL, Day 61, versus EDTA non-treatment; FIG. 18.
Procedure: The inner ear progenitor cells were obtained from human iPS cells by the same method as in Test Example 1, and suspension culture was continued until the 49th day (Day 61) after the start of the suspension culture by the same method as in Test Example 2 using the inner ear progenitor cells.
For the obtained cells, a barrier function assay was performed. Specifically, the culture after the suspension culture was put into a microtube having a volume of 1.5 mL for each cell, and centrifuged, the culture medium was discarded, and 0.5 mL of HBSS containing 2 mM EDTA was added. In addition, as a control, a sample to which HBBS containing no EDTA was added was also prepared under the same conditions. Each of the samples was placed on ice for 15 minutes, and then 4 kDa FITC-Dextran was added to each of the samples to a concentration of 2 mg/mL, and the samples were suspended and immediately observed with a confocal microscope.
In test [2] the test system is OTX2 gene. The test is described as follows: OTX2 gene expression by qPCR during differentiation induction into inner ear stria vascularis marginal cells. It counts as cell-based, human. To be noted: Day 60; insulin-free medium (N21-Ins) versus B27+N2 medium and insulin-free medium with 1.5 μM insulin added from Day 20; FIG. 17. The method, then: The differentiation from human iPS cells into inner ear progenitor cells was induced by the same method as in Test Example 1, the cells on the 12th day (Day 12) from the start of the differentiation induction were detached off with Accutase, an equal amount of PBS was added thereto, the cells were passed through a nylon mesh (pore size: 40 μm), and the number of cells was counted with a hemocytometer.
The cells were suspended to a concentration of 5×10^5 cells/10 mL and seeded in a low adhesion 6-well plate (trade name “Corning Ultra-Low Attachment Plate”, Corning Inc.), and suspension culture was started under low oxygen conditions (4% of O2, 5% of CO2). […]
In any of the above Conditions 1) to 3), the cells on the 48th day (Day 60) after the start of the suspension culture were collected, and the expression level of the OTX2 gene, which is known to be expressed on the Reissner's membrane, which is an inner ear organ, and known to be poorly expressed in the inner ear stria vascularis marginal cells, was quantified by qPCR in the same manner as in Test Example 1.
For orientation: In qPCR the cycle at which signal appears reflects the starting amount.

`O=C(O)CN(CCN(CC(=O)O)CC(=O)O)CC(=O)O` [EDTA]: in test [1], the “barrier function between cells (transfer of FITC-Dextran to the inside of the cell mass)” value is recorded as “calcium-dependent barrier function was impaired”. In the case of insulin, the “expression level of OTX2” value in test [2] is listed as “low in a case where the culture medium did not contain insulin as compared with a case where insulin was contained in the culture medium”.
